US20240208955A1 (RESEARCH TRIANGLE INSTITUTE, priority 2021, published 2024)
Where two headings read alike, the source gives them in different places.

What was measured:
RXFP1 = molecular target: T1, RXFP1 (Homo sapiens, UniProt Q9HBX9); assay: Activity at RXFP1 (selectivity); format: cell-based; conditions: all concentrations tested up to 30 μM
T1 sequence (Q9HBX9 1-757): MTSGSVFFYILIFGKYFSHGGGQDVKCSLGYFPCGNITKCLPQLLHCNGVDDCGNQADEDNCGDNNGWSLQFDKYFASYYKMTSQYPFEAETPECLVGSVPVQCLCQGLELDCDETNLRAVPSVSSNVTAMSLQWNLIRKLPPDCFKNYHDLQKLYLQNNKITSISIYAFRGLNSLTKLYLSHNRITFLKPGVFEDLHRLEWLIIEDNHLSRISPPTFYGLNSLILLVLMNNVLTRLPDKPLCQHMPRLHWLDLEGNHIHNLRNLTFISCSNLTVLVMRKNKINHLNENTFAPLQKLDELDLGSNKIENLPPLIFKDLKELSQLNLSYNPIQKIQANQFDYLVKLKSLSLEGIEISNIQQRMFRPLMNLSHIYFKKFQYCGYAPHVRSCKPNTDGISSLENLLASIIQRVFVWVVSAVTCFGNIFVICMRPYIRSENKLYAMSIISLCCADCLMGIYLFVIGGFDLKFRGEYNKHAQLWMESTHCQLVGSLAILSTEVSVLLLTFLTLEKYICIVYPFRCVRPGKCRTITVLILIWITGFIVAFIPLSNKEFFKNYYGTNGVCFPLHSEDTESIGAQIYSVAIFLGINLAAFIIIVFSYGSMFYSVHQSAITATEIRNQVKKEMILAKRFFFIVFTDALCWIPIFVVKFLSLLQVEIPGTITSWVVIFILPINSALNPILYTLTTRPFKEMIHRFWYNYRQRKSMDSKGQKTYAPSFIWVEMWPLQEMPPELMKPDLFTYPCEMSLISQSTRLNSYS
Description: It is believed that these compounds represent the first series of small molecule RXFP3 antagonists to be described.

human RXFP3 = molecular target: T2, human RXFP3 (Homo sapiens, UniProt Q9NSD7); assay: RXFP3 cAMP accumulation assay (inhibition of relaxin-3 activity) in stable CHO human RXFP3 cells
T2 sequence (Q9NSD7 1-469): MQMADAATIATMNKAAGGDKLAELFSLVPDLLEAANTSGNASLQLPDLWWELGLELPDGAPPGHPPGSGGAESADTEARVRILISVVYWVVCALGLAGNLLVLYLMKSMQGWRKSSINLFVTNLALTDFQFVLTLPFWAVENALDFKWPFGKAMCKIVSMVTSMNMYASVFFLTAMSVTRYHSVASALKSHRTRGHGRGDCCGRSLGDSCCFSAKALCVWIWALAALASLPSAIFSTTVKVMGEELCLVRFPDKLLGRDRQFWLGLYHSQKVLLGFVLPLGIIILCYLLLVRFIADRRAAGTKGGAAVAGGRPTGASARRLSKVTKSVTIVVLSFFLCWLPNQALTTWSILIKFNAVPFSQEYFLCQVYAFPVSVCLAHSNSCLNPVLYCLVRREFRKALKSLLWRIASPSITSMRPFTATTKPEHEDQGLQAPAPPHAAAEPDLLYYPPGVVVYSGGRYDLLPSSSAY
Description: The assay is based on the competition between a europium chelate-labeled cAMP tracer and unlabeled cAMP produced by cells. […] CHO human RXFP3 cells were cultured in F12 media supplemented with 10% FBS, 100 units/mL penicillin, 100 μg/mL streptomycin, and 400 μg/mL geneticin. Stimulation buffer containing 1×HBSS, 5 mM HEPES (pH 7.4), 0.1% BSA stabilizer, and 0.5 mM IBMX was prepared. A concentration response curve of each test compound was prepared at 4 times the desired final concentration in 4% DMSO/stimulation buffer, and 5 μL was added to the assay plate. […] Forskolin (1 μM) was prepared at 4 times the desired concentration in stimulation buffer, and 5 μL was added to the assay plate. Cells were lifted from flasks with versene and spun at 270 g for 5 min. The cell pellet was resuspended in stimulation buffer and 5000 cells (5 μL) were added to each well. After incubating for 30 min at room temperature, Eu cAMP tracer and uLIGHT-anticAMP working solutions were added per the manufacturer's instructions.

[1] = IC50 (functional RXFP3 antagonist), inhibition of relaxin-3 activity, RXFP3-CHO cAMP assay

Compound | IC50 (human RXFP3) [nM] | further results
O=C(Nc1ccc(-c2nc(-c3ccc(Cl)cc3)no2)cc1)C1CC(=O)N(Cc2ccco2)C1 (stereo not shown) [RLX-33, N-{4-[3-(4-Chlorophenyl)-1,2,4-oxadiazol-5-yl]phenyl}-1-[(furan-2-yl)methyl]-5-oxopyrrolidine-3-carboxamide] | 2880 ± 321 | activity at RXFP1 (RXFP1): no activity; IC50 (human RXFP3; [1]): 2900 nM
Cc1cccc(-c2noc(-c3ccc(NC(=O)C4CC(=O)N(Cc5cccnc5)C4)cc3)n2)c1 (stereo not shown) [RLX-17, N-{4-[3-(3-Methylphenyl)-1,2,4-oxadiazol-5-yl]phenyl}-5-oxo-1-[(pyridin-3-yl)methyl]-pyrrolidine-3-carboxamide] | 5350 ± 1340 | 
Cc1ccc(-c2noc(-c3ccc(NC(=O)C4CCN(Cc5ccccc5)C4)cc3)n2)cc1 (stereo not shown) [RLX-37, 1-Benyl-N-{4-[3-(4-methylphenyl)-1,2,4-oxadiazol-5-yl]phenyl}-pyrrolidine-3-carboxamide] | > 10000 | 
Cc1ccc(-c2noc(-c3ccc(NC(=O)C4CC(=O)N(C)C4)cc3)n2)cc1 (stereo not shown) [RLX-15, 1-Methyl-N-{4-[3-(4-methylphenyl)-1,2,4-oxadiazol-5-yl]phenyl}-5-oxopyrrolidine-3-carboxamide] | 2720 ± 384 | 
O=C(Nc1ccc(-c2nc(-c3ccccc3)no2)cc1)C1CC(=O)N(Cc2ccccc2)C1 (stereo not shown) [RLX-2, 1-Benzyl-N-[4-(3-phenyl-1,2,4-oxadiazol-5-yl)phenyl]-5-oxopyrrolidine-3-carboxamide] | 7530 ± 998 | 
Cc1ccc(-c2noc(-c3ccc(NC(=O)C4CC(=O)N(Cc5ccccn5)C4)cc3)n2)cc1 (stereo not shown) [RLX-9, N-{4-[3-(4-Methylphenyl)-1,2,4-oxadiazol-5-yl]phenyl}-5-oxo-1-[(pyridin-2-yl)methyl]-pyrrolidine-3-carboxamide] | 4810 ± 682 | 
O=C(Nc1ccc(-c2nc(-c3ccccc3)no2)cc1)C1CC(=O)N(Cc2cccnc2)C1 (stereo not shown) [RLX-16, 5-Oxo-N-[4-(3-phenyl-1,2,4-oxadiazol-5-yl)phenyl]-1-[(pyridin-3-yl)methyl]-pyrrolidine-3-carboxamide] | 6610 ± 909 | 
O=C(Nc1ccc(-c2nc(-c3cccc(F)c3)no2)cc1)C1CC(=O)N(Cc2cccnc2)C1 (stereo not shown) [RLX-19, N-{4-[3-(3-Fluorophenyl)-1,2,4-oxadiazol-5-yl]phenyl}-5-oxo-1-(3-pyridinylmethyl) pyrrolidine-3-carboxamide] | 1340 ± 226 | IC50 (human RXFP3; [1]): 1300 nM
O=C(Nc1ccc(-c2nc(-c3ccc(C(F)(F)F)cc3)no2)cc1)C1CC(=O)N(Cc2ccco2)C1 (stereo not shown) [RLX-32, 1-[(Furan-2-yl)methyl]-5-oxo-N-(4-{3-[4-(trifluoromethyl)phenyl]-1,2,4-oxadiazol-5-yl}phenyl)pyrrolidine-3-carboxamide] | 6680 ± 349 | 
Cc1ccc(-c2noc(-c3ccc(NC(=O)C4CC(=O)N(CCc5ccccc5)C4)cc3)n2)cc1 (stereo not shown) [RLX-4, N-{4-[3-(4-Methylphenyl)-1,2,4-oxadiazol-5-yl]phenyl}-5-oxo-1-(2-phenylethyl)pyrrolidine-3-carboxamide] | > 10000 | 
O=C(Nc1ccc(-c2nc(-c3ccc(C(F)(F)F)cc3)no2)cc1)C1CC(=O)N(Cc2cccnc2)C1 (stereo not shown) [RLX-21, 5-Oxo-1-[(pyridin-3-yl)methyl]-N-(4-{3-[4-(trifluoromethyl)phenyl]-1,2,4-oxadiazol-5-yl}phenyl)-pyrrolidine-3-carboxamide] | 2500 ± 97 | 
O=C(Nc1ccc(-c2nc(-c3ccc(Br)cc3)no2)cc1)C1CC(=O)N(Cc2cccnc2)C1 (stereo not shown) [RLX-25, N-{4-[3-(4-Bromophenyl)-1,2,4-oxadiazol-5-yl]phenyl}-5-oxo-1-[(pyridin-3-yl)methyl]-pyrrolidine-3-carboxamide] | 2890 ± 193 | 
O=C(Nc1ccc(-c2nc(-c3ccc(Cl)cc3)no2)cc1)C1CC(=O)N(Cc2cccnc2)C1 (stereo not shown) [RLX-24, N-{4-[3-(4-Chlorophenyl)-1,2,4-oxadiazol-5-yl]phenyl}-5-oxo-1-[(pyridin-3-yl)methyl]-pyrrolidine-3-carboxamide] | 1250 ± 219 | IC50 (human RXFP3; [1]): 1200 nM
O=C(Nc1ccc(-c2nc(-c3ccc(F)cc3)no2)cc1)C1CC(=O)N(Cc2cccnc2)C1 (stereo not shown) [RLX-20, N-{4-[3-(4-Fluorophenyl)-1,2,4-oxadiazol-5-yl]phenyl}-5-oxo-1-[(pyridin-3-yl)methyl]-pyrrolidine-3-carboxamide] | 1910 ± 367 | 
Cc1ccc(-c2noc(-c3ccc(NC(=O)C4CC(=O)N(Cc5cccnc5)C4)cc3)n2)cc1 (stereo not shown) [RLX-10, N-{4-[3-(4-Methylphenyl)-1,2,4-oxadiazol-5-yl]phenyl}-5-oxo-1-[(pyridin-3-yl)methyl]-pyrrolidine-3-carboxamide] | 2350 ± 248 | 
Cc1ccc(-c2noc(-c3ccc(NC(=O)C4CC(=O)N(Cc5cccc(C)c5)C4)cc3)n2)cc1 (stereo not shown) [RLX-8, 1-[(3-Methylphenyl)methyl]-N-{4-[3-(4-methylphenyl)-1,2,4-oxadiazol-5-yl]phenyl}-5-oxopyrrolidine-3-carboxamide] | > 10000 | 
Cc1ccc(-c2noc(-c3ccc(NC(=O)CCNCc4ccccc4)cc3)n2)cc1 [RLX-39, 3-[Benzylamino]-N-{4-[3-(4-methylphenyl)-1,2,4-oxadiazol-5-yl]phenyl}propanamide] | 5590 ± 623 | 
COc1ccc(-c2noc(-c3ccc(NC(=O)C4CC(=O)N(Cc5cccnc5)C4)cc3)n2)cc1 (stereo not shown) [RLX-22, N-{4-[3-(4-Methoxyphenyl)-1,2,4-oxadiazol-5-yl]phenyl}-5-oxo-1-[(pyridin-3-yl)methyl]-pyrrolidine-3-carboxamide] |  | IC50 (nM) (human RXFP3; inhibition of relaxin-3 (0.6 nM) activity, forskolin-stimulated cAMP accumulation, CHO human RXFP3 cells, mean ± SEM of at least three independent experiments in duplicate): Not active
